Source: patent publication US8956622B2, “Peptidic antagonists of class III semaphorins/neuropilins complexes” (INSERM—Institut National de la Sante et de la Recherche …, priority 2005, dated 2015)

How the values were obtained:
NRP1 [1] = biological target: T1, NRP1 (Rattus norvegicus, UniProt Q9QWJ9); assay: AP-Sema3A binding to its receptor NRP1 on C6 glioma cells (luminescence)
T1 construct: Rat C6 glioma cells, which express semaphorin receptors; endogenous in cells; host or cells: rat C6 glioma cells
Protocol: In order to investigate the NRP1 transmembrane domain role in the linkage NRP1-class III semaphorins, the binding of the ligand Sema3A to its receptor NRP1 on glioma cells was measured in the presence or not of the transmembrane domain peptide of NRP1 (pTM-NRP1 peptide; SEQ ID NO. 1) or of a mutated peptide (mpTM-NRP1; SEQ ID NO. 20, […]). These pTM-NRP1 Peptides have been synthesized by automatic peptidic synthesis (Fmoc chemistry, APPLIED SYSTEM), and analyzed by mass spectrometry. Peptides purity has been estimated by RP-HPLC (BECKMAN) as higher than 90%.
Rat C6 glioma cells, which express semaphorin receptors, has been used to determine the binding capacity of AP-Sema3A, a secreted alkaline phosphatase version of Sema 3A (ADAMS et al., 1997, BAGNARD et al., 1998). These cells were grown and plated in MEM medium (GIBCO) with 10% foetal calf serum (PERBIO), glutamine 0.5 mM (GIBCO) and antibiotics: 100 U/ml penicillin and 100 μg/ml streptomycin (SIGMA).
C6 Cells were cultured in 96-well plates and incubated with or without freshly diluted pTM-NRP1 or pTM-NRP1^mut peptides (10^−12 M to 10^−10 M) for 1 hour at 37° C. The culture medium has been then replaced by conditioned medium of HEK cells stably transfected with a construction expressing AP-Sema 3A (ADAMS et al., EMBO J., vol. 16(20), p: 6077-86, 1997; BAGNARD et al., 1998). Conditioned medium from HEK non transfected cells has been used as an internal control. The pTM-NRP1 Peptide has been synthesized by automatic peptidic synthesis (Fmoc chemistry, APPLIED SYSTEM), and analyzed by mass spectrometry. Peptides purity has been estimated by RP-HPLC (BECKMAN) as higher than 90%, the cells have been washed with PBS and incubated with 50 μl of alkaline phosphatase luminescent substrate (AMERSHAM). The luminescence has been read after 15 minutes with MICROLUMAT PLUS system (BERTHOLD TECHNOLOGIES) according to the manufacturer's instructions. Experiments were done 4 times for each peptide.

C6 glioma = C6 glioma cells pre-incubated with peptide and injected into the striatum, tumour development at 8 days; assay type: in vivo, rats
Protocol: The rat C6 glioma cell line, which is a good model of human glioma (DAI and HOLLAND, Biochim. Biophys. Acta, vol. 1551, p: M19-27, 2001), has been used to investigate how the blockade of NRP1 by using our peptidic strategy (pTM-NRP1) may interfere with cell migration and dissemination.
C6 cells (ATCC CCL-107) were stained using PKH26 (Sigma). Cells were incubated with peptides (pTM-NRP1 10^−8M or mutated pTM-NRP1 10^−8M) prior to injections for at least 2 h on ice in culture medium (composed of MEM with 5000 u/ml penicillin, 5 mg/ml streptomycin, 200 mM L-glutamine and 10% fetal calf serum). Injections of 10^6 cells were performed using a stereotaxic frame according to the following coordinates: antero-posterior, +1.6 mm relative to Bregma; L, +2 mm; H, +5 mm relative to the cortical surface.
All injections were performed in the left striatum.
Following a survival period of 8 days, the animals (3 groups of 4 rats) were killed by a lethal intra-peritoneal injection of pentobarbital before trans-cardiac perfusion with a pre-rinse of 100 ml PBS followed by 500 ml of 2% formaldehyde. The brains were post-fixed during 2 hours at 4° C. and sagittal sections (70 μm) were prepared on a vibratome.
One group of sections were mounted in PBS-glycerol (v/v) for microscopic observation, and another one was treated for immunostaining of CD34. […]

NRP1 [2] = biological target: T2, NRP1 (Homo sapiens, UniProt O14786); assay: AP-Sema3A binding to NRP1-expressing COS cells (optical density per cell); conditions: peptide 10^−9 M, 1 hour pre-incubation
T2 construct: mutations were introduced into the TM domain of a full length NRP1; expressed in transfected cells; host or cells: COS-1 cells, pBK-CMV plasmid (cDNA provided by Pr. Puschel)
Protocol: NRP1 expressing COS cells were incubated with AP-Sema3A, a fusion protein of Sema3A and the secreted alkaline phosphatase (BAGNARD et al., 1998).
Wild-type COS cells or NRP1-expressing COS cells (COS-NRP1) were cultured on 12-wells plates on poly-L-lysine-coated glass coverslips (0.005 mg/ml). After one-hour incubation with pTM-NRP1 or pTM-NRP1^mut (10^−9M) in serum-free medium at 37° C., the culture medium was replaced by conditioned medium containing alkaline phosphatase-coupled Sema3A (AP-Sema3A; BAGNARD et al., 1998) obtained from AP-Sema3A stably expressing HEK cells for 90 mn. Conditioned medium without semaphorin served as a control (obtained from non-transfected HEK). Cells were washed three times with PBS and fixed in 4% formaldehyde before transfer in a new dish. After three washes in PBS, the plate was warmed for 50 mn at 65° C. Cells were subsequently incubated with 1 ml of alkaline phosphatase substrate (NBT/BCIP, SIGMA) in the dark. After 45 mn, substrate was removed and glass coverslips were rinsed. Pictures were acquired with a conventional microscope and analyzed with AxioVision LE Zeiss software. For each condition tested, about 60 cells were analyzed to determine binding levels as a function of optical density. Statistical analysis was performed by using a Student's t test.

T2 sequence (O14786 22-923): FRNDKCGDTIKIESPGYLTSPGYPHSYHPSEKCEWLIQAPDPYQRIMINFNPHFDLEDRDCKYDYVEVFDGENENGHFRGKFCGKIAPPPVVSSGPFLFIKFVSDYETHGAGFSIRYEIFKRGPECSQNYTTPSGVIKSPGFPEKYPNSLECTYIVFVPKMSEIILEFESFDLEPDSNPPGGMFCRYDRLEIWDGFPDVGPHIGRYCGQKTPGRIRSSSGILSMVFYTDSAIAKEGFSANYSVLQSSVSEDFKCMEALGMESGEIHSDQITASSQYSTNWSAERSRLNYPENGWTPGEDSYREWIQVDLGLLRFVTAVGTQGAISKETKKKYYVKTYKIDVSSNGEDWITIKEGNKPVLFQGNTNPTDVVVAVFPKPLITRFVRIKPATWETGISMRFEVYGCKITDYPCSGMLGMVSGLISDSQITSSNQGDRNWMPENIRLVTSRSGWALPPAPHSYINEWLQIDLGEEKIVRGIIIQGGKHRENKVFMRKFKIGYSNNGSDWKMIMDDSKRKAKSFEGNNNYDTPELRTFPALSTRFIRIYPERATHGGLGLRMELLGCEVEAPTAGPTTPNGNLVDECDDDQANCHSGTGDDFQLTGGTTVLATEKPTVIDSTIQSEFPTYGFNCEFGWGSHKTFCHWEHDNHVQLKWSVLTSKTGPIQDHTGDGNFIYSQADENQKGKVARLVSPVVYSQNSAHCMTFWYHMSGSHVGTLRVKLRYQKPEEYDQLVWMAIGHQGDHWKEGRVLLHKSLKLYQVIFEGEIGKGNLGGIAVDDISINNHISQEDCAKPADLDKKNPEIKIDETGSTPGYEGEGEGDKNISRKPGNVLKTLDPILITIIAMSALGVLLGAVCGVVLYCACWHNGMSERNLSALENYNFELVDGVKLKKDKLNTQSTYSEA

Sequence: ILITIIAMSALGVLLGAVCGVVL [pTM-NRP1]
- decrease of binding of AP-Sema3A to NRP1 compared to the absence of peptide (NRP1 [1]; C6 cells, peptide 10^−10 M): about 50%
- binding of AP-Sema3A to its receptor NRP1 on C6 cells (NRP1 [1]; peptide 10^−12 M to 10^−10 M, 1 hour): blocked in a dose dependent manner
- tumour size (C6 glioma; C6 cells treated with peptide 10^−8 M prior to injection in the left striatum, 8 days, n=4): strong reduction
- immunoreactivity for CD34, a marker of neoangiogenesis (C6 glioma; C6 cells treated with peptide 10^−8 M prior to injection, brain sections at 8 days): strong reduction
- binding of AP-Sema3A to NRP1-expressing COS cells (NRP1 [2]): significantly reduced
